In patent US20190336498A1, “METHODS AND COMPOSITIONS FOR THE TREATMENT OF CUSHING'S SYNDROME USING 2S, 4R KETOCONAZOLE” (STRONGBRIDGE DUBLIN LIMITED, priority 2014, published 2019):

Tests used:
[1] = biological target: T1, 14-α-demethylase (Rattus norvegicus, UniProt Q64654); settings: comparison in words; cited from earlier work
T1 sequence (Q64654 1-503): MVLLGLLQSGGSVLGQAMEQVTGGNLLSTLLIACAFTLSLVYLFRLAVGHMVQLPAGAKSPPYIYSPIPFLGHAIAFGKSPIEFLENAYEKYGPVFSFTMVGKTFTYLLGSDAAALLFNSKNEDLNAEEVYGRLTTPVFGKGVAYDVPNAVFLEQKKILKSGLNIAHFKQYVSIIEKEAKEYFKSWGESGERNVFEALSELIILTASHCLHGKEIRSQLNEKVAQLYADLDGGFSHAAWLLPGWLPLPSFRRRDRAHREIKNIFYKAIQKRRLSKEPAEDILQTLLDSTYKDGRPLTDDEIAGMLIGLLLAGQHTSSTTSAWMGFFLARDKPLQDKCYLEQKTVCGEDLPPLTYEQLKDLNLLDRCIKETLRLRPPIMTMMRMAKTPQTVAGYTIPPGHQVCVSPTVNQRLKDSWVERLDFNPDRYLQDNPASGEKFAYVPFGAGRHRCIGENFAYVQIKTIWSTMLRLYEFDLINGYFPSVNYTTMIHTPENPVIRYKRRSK

[2] = biological target: 11-β-hydroxylase; settings: comparison in words; cited from earlier work
[3] = system: C-reactive protein (CRP); settings: clinical study; cited from earlier work
[4] = Pharmacokinetics of the enantiomers in humans after oral administration of ketoconazole; type: in vivo; settings: following oral administration of ketoconazole (racemic)
Source text: Reduced hepatic exposure to the 2S,4R enantiomer may be of value in reducing the liver function abnormalities observed following administration of racemic ketoconazole.

[5] = system: corticosterone; settings: rats; vs the other enantiomers or racemic ketoconazole; cited from earlier work
[6] = system: QTc interval; experiment: QTc interval prolongation; settings: in vivo
Source text: The potential risk of protracted, drug induced prolongation of the QTc interval on the ECG is the development of an arrhythmia called torsade de pointes. […] Subjects with CS may have greater than normal QTc intervals and treatment that reduces cortisol levels may result in reductions in QTc intervals.

[7] = system: cholesterol; settings: vs the other enantiomer; cited from earlier work
[8] = Safety and tolerability in healthy volunteers and subjects with Type 2 Diabetes Mellitus; type: in vivo, human; settings: 200 mg to 600 mg QD for up to 14 days and 150 mg to 450 mg for up to 4 months; healthy volunteers and T2DM subjects
[9] = system: Cushing's syndrome; settings: off-label, titrated to effect; cited from earlier work

Row | Structure (SMILES) | IC50 toward a key enzyme in cholesterol synthesis (14-α-demethylase) compared with the other enantiomer [1] | IC50 toward the key enzyme in cortisol synthesis (11-α-hydroxylase) compared with the other enantiomer [2] | IC50 toward the key enzyme in cortisol synthesis (11-β-hydroxylase) compared with the other enantiomer [2] | reduction in C-reactive protein (CRP) levels [3] | blood concentrations of the 2S,4R enantiomer exceed those of the 2R,4S enantiomer [4] | potency with respect to reducing corticosterone [5] | prolongation of QTc intervals [6] | reduction of cholesterol [7] | safety and tolerability [8] | therapeutic success rate in CS [9]
1 | CC(=O)N1CCN(c2ccc(OC[C@@H]3CO[C@@](Cn4ccnc4)(c4ccc(Cl)cc4Cl)O3)cc2)CC1 (racemic) [2S,4R ketoconazole enantiomer] | significantly lower IC50 | significantly lower IC50 | significantly lower IC50 | dose response reduction | approximately 3 fold | more potent | capability to prolong QTc intervals in a dose (concentration) related manner | appeared to reduce cholesterol more than the other enantiomer | generally safe and well tolerated | 
2 | CC(=O)N1CCN(c2ccc(OCC3COC(Cn4ccnc4)(c4ccc(Cl)cc4Cl)O3)cc2)CC1 (racemic) [racemic ketoconazole, reference compound] |  |  |  | no reduction |  |  |  |  |  | 50-70%
